We go through 13 molecules from PubChem BioAssay AID256 (DTP/NCI, 2004).

Where “and” joins values, the source holds several entries; their conditions need not be identical. Equal entries are not always repeated. Toxic doses and inconclusive results are not listed.

For the experiment, the system named is CD2F1 mice, L1210 leukemia ip, survival T/C. The experiment is described as follows: NCI In Vivo Anticancer Drug Screen. Data for tumor model L1210 Leukemia (intraperitoneal) in CD2F1 (CDF1) mice. The note with it: higher = longer survival. Put shortly: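 Compound-dosed mice with transplantable tumor versus matched vehicle controls; endpoint ratio T/C reported.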

The mark [1] stands for this setting: endpoint: mean survival time, dose: 25.0 mg/kg/injection, schedule: Q01DX009 (ip), vehicle: other.
The mark [2] stands for this setting: endpoint: mean survival time, dose: 50.0 mg/kg/injection, schedule: Q01DX009 (ip), vehicle: other.
Where [3] appears, read: endpoint: mean survival time, dose: 200.0 mg/kg/injection, schedule: Q01DX009 (ip), vehicle: other.

With `Nc1ncnc2c(C3OC(CO)C(O)C3O)c[nH]c12` (configuration not stated), the T/C reads like this: (endpoint: median survival time, dose: 0.05 mg/kg/injection, schedule: Q01DX005 (ip), vehicle: saline) 114 % of control and 121 % of control; (endpoint: median survival time, dose: 0.1 mg/kg/injection, schedule: Q01DX005 (ip), vehicle: saline) 116 % of control and 123 % of control; (endpoint: median survival time, dose: 0.4 mg/kg/injection, schedule: Q01DX005 (ip), vehicle: saline) 115 % of control; (endpoint: median survival time, dose: 0.8 mg/kg/injection, schedule: Q01DX005 (ip), vehicle: saline) 102 % of control and 104 % of control.

For the molecule `CN(Cc1ccccc1)CC1(CO)CC=CCC1` (configuration not stated), the T/C (endpoint: mean survival time, dose: 75.0 mg/kg/injection, schedule: Q01DX001 (ip), vehicle: saline) was 97 % of control and the T/C (endpoint: mean survival time, dose: 150.0 mg/kg/injection, schedule: Q01DX001 (ip), vehicle: saline) is 100 % of control.

Consider `COc1cc(C(=O)c2cc3c(cc2C)OCO3)cc(OC)c1OC`, for which the T/C was 102 % of control and 105 % of control (endpoint: mean survival time, dose: 6.25 mg/kg/injection, schedule: Q01DX009 (ip), vehicle: Klucel (hydroxypropylcellulose) (HPC)); 100 % of control and 102 % of control (endpoint: mean survival time, dose: 12.5 mg/kg/injection, schedule: Q01DX009 (ip), vehicle: Klucel (hydroxypropylcellulose) (HPC)); 105 % of control and 107 % of control (endpoint: mean survival time, dose: 25.0 mg/kg/injection, schedule: Q01DX009 (ip), vehicle: Klucel (hydroxypropylcellulose) (HPC)); 113 % of control and 98 % of control (endpoint: mean survival time, dose: 50.0 mg/kg/injection, schedule: Q01DX009 (ip), vehicle: Klucel (hydroxypropylcellulose) (HPC)); 105 % of control (endpoint: mean survival time, dose: 100.0 mg/kg/injection, schedule: Q01DX009 (ip), vehicle: Klucel (hydroxypropylcellulose) (HPC)); 114 % of control (endpoint: mean survival time, dose: 200.0 mg/kg/injection, schedule: Q01DX009 (ip), vehicle: Klucel (hydroxypropylcellulose) (HPC)).

Consider `CNC(=O)Oc1cccc(NC(=O)OCc2ccccc2)c1`, for which the T/C is, setting by setting: (endpoint: mean survival time, dose: 100.0 mg/kg/injection, schedule: Q04DX003 (ip), vehicle: saline with Tween-80) 99 % of control; (endpoint: mean survival time, dose: 200.0 mg/kg/injection, schedule: Q04DX003 (ip), vehicle: saline with Tween-80) 96 % of control; (endpoint: mean survival time, dose: 400.0 mg/kg/injection, schedule: Q04DX003 (ip), vehicle: saline with Tween-80) 92 % of control.

As for `[Cl][Pt+2][Cl].[NH-]C(C(=O)OCc1ccccc1)c1ccccc1.[NH-]C(C(=O)OCc1ccccc1)c1ccccc1` (configuration not stated), the T/C (endpoint: median survival time, dose: 3.12 mg/kg/injection, schedule: Q04DX003 (ip), vehicle: saline) was 103 % of control; the T/C (endpoint: median survival time, dose: 6.25 mg/kg/injection, schedule: Q04DX003 (ip), vehicle: saline) was 109 % of control; the T/C (endpoint: median survival time, dose: 12.5 mg/kg/injection, schedule: Q04DX003 (ip), vehicle: saline) was 98 % of control; the T/C (endpoint: median survival time, dose: 25.0 mg/kg/injection, schedule: Q04DX003 (ip), vehicle: saline) is 101 % of control; the T/C (endpoint: median survival time, dose: 50.0 mg/kg/injection, schedule: Q04DX003 (ip), vehicle: saline) is 109 % of control; the T/C (endpoint: median survival time, dose: 100.0 mg/kg/injection, schedule: Q04DX003 (ip), vehicle: saline) is 109 % of control. Besides, the T/C (endpoint: median survival time, dose: 200.0 mg/kg/injection, schedule: Q04DX003 (ip), vehicle: saline) was 111 % of control.

`COc1ccc(CC(C)NC(=O)c2ccc(OC)c(OC)c2)cc1OC` (configuration not stated): the T/C reads like this: (endpoint: mean survival time, dose: 12.5 mg/kg/injection, schedule: Q01DX009 (ip), vehicle: other) 105 % of control; under setting [1], 94 % of control; under setting [2], 96 % of control; (endpoint: mean survival time, dose: 100.0 mg/kg/injection, schedule: Q01DX009 (ip), vehicle: other) 93 % of control; under setting [3], 94 % of control.

Regarding `O=[P+](O)C(O)c1ccccc1` (configuration not stated), the T/C was 108 % of control (endpoint: mean survival time, dose: 100.0 mg/kg/injection, schedule: Q04DX003 (ip), vehicle: saline); 111 % of control (endpoint: mean survival time, dose: 200.0 mg/kg/injection, schedule: Q04DX003 (ip), vehicle: saline); 117 % of control (endpoint: mean survival time, dose: 400.0 mg/kg/injection, schedule: Q04DX003 (ip), vehicle: saline).

In the case of `CCOC(=O)c1c[nH]c2oc(/C=N/N3CC(CN4CCOCC4)OC3=O)cc2c1=O` (configuration not stated), the T/C was 97 % of control and 109 % of control (endpoint: mean survival time, dose: 12.5 mg/kg/injection, schedule: Q01DX009 (ip), vehicle: saline); 102 % of control under setting [1]; 107 % of control (endpoint: mean survival time, dose: 25.0 mg/kg/injection, schedule: Q01DX009 (ip), vehicle: saline with Tween-80); 97 % of control and 103 % of control (endpoint: mean survival time, dose: 25.0 mg/kg/injection, schedule: Q01DX009 (ip), vehicle: saline); 110 % of control under setting [2]; 109 % of control (endpoint: mean survival time, dose: 50.0 mg/kg/injection, schedule: Q01DX009 (ip), vehicle: saline with Tween-80). Moreover, the T/C (endpoint: mean survival time, dose: 50.0 mg/kg/injection, schedule: Q01DX009 (ip), vehicle: saline) is 114 % of control and 101 % of control; the T/C (endpoint: mean survival time, dose: 100.0 mg/kg/injection, schedule: Q01DX009 (ip), vehicle: saline with Tween-80) is 124 % of control; the T/C under setting [3] was 160 % of control; the T/C (endpoint: mean survival time, dose: 200.0 mg/kg/injection, schedule: Q01DX009 (ip), vehicle: saline) was 158 % of control; the T/C (endpoint: mean survival time, dose: 400.0 mg/kg/injection, schedule: Q01DX009 (ip), vehicle: other) was 96 % of control; the T/C (endpoint: mean survival time, dose: 400.0 mg/kg/injection, schedule: Q01DX009 (ip), vehicle: saline with Tween-80) is 152 % of control. In addition, the T/C was 124 % of control and 100 % of control (endpoint: mean survival time, dose: 400.0 mg/kg/injection, schedule: Q01DX009 (ip), vehicle: saline); 112 % of control (endpoint: median survival time, dose: 50.0 mg/kg/injection, schedule: Q01DX005 (ip), vehicle: other); 115 % of control and 101 % of control (endpoint: median survival time, dose: 50.0 mg/kg/injection, schedule: Q01DX009 (ip), vehicle: acid diluted with saline); 118 % of control (endpoint: median survival time, dose: 100.0 mg/kg/injection, schedule: Q01DX005 (ip), vehicle: other); 124 % of control (endpoint: median survival time, dose: 100.0 mg/kg/injection, schedule: Q01DX009 (ip), vehicle: acid diluted with saline); 190 % of control (endpoint: median survival time, dose: 400.0 mg/kg/injection, schedule: Q01DX005 (ip), vehicle: other). In addition, the T/C (endpoint: median survival time, dose: 400.0 mg/kg/injection, schedule: Q01DX009 (ip), vehicle: acid diluted with saline) is 90 % of control.

Regarding `CC(C)(C)OC(=O)C12CCCC(C(=O)OC(C)(C)C)(OO1)O2`, the T/C is, setting by setting: (endpoint: mean survival time, dose: 100.0 mg/kg/injection, schedule: Q01DX001 (ip), vehicle: saline) 95 % of control; (endpoint: mean survival time, dose: 200.0 mg/kg/injection, schedule: Q01DX001 (ip), vehicle: saline) 95 % of control; (endpoint: mean survival time, dose: 400.0 mg/kg/injection, schedule: Q01DX001 (ip), vehicle: saline) 101 % of control.

Turning to `CCCCC#CCOCC(O)CCl` (configuration not stated), the T/C by setting is: (endpoint: mean survival time, dose: 25.0 mg/kg/injection, schedule: Q01DX009 (ip), vehicle: water) 95 % of control; (endpoint: mean survival time, dose: 50.0 mg/kg/injection, schedule: Q01DX009 (ip), vehicle: water) 107 % of control; (endpoint: mean survival time, dose: 100.0 mg/kg/injection, schedule: Q01DX009 (ip), vehicle: water) 103 % of control; (endpoint: mean survival time, dose: 200.0 mg/kg/injection, schedule: Q01DX009 (ip), vehicle: water) 100 % of control.

In the case of `O=C1N[C@H]2[C@H](CS[C@H]2CCCCC(=O)N(CCP(c2ccccc2)c2ccccc2)CCP(c2ccccc2)c2ccccc2)N1`, the T/C (endpoint: median survival time, dose: 25.0 mg/kg/injection, schedule: Q01DX009 (ip), vehicle: Klucel (hydroxypropylcellulose) (HPC)) is 100 % of control and 107 % of control; the T/C (endpoint: median survival time, dose: 50.0 mg/kg/injection, schedule: Q01DX009 (ip), vehicle: Klucel (hydroxypropylcellulose) (HPC)) was 98 % of control and 107 % of control; the T/C (endpoint: median survival time, dose: 100.0 mg/kg/injection, schedule: Q01DX009 (ip), vehicle: Klucel (hydroxypropylcellulose) (HPC)) was 103 % of control and 109 % of control; the T/C (endpoint: median survival time, dose: 200.0 mg/kg/injection, schedule: Q01DX009 (ip), vehicle: Klucel (hydroxypropylcellulose) (HPC)) was 97 % of control and 110 % of control; the T/C (endpoint: median survival time, dose: 400.0 mg/kg/injection, schedule: Q01DX009 (ip), vehicle: Klucel (hydroxypropylcellulose) (HPC)) was 90 % of control and 108 % of control.

For `O=C1Cc2c(nc[nH]c2=O)N1`, the T/C by setting is: (endpoint: median survival time, dose: 50.0 mg/kg/injection, schedule: Q01DX005 (ip), vehicle: saline) 101 % of control; (endpoint: median survival time, dose: 100.0 mg/kg/injection, schedule: Q01DX005 (ip), vehicle: saline) 97 % of control; (endpoint: median survival time, dose: 200.0 mg/kg/injection, schedule: Q01DX005 (ip), vehicle: saline) 92 % of control.

For `CC1SC(=S)NC1=O` (configuration not stated), the T/C (endpoint: mean survival time, dose: 100.0 mg/kg/injection, schedule: Q04DX003 (ip), vehicle: saline sonified) was 93 % of control; the T/C (endpoint: mean survival time, dose: 200.0 mg/kg/injection, schedule: Q04DX003 (ip), vehicle: saline sonified) was 113 % of control; the T/C (endpoint: mean survival time, dose: 400.0 mg/kg/injection, schedule: Q04DX003 (ip), vehicle: saline sonified) was 96 % of control.
